Details: not given

Row | Compound | melting point | log10 Koc (L/kg) | boiling point | ready biodegradability | log10 vapour pressure (mmHg) | log10 Henry constant (atm·m³/mol) | log10 biodegradation half-life (days)
1 | COc1cc2nc(N3CCN(C(=O)c4ccco4)CC3)nc(N)c2cc1OC | 279 °C |  |  |  |  |  | 
2 | COC(=O)c1ccc(Cl)cc1 | 43.5 °C |  |  |  |  |  | 
3 | COP(=S)(OC)SCSc1ccc(Cl)cc1 |  | 4.67 |  |  |  |  | 
4 | CC(=O)CCc1ccccc1 | -13 °C |  | 234 °C | not readily biodegradable |  |  | 
5 | O=P(OC(Cl)CCCl)(OC(Cl)CCCl)OC(Cl)CCCl (stereo not drawn) | 26.7 °C |  |  |  |  |  | 
6 | O=[N+]([O-])c1cc(Cl)c(O)c(Cl)c1 | 127 °C |  |  |  |  |  | 
7 | COS(=O)(=O)Cl | -70 °C |  | 134 °C |  |  |  | 
8 | COP(=S)(Oc1cc(Cl)c(Br)cc1Cl)c1ccccc1 (stereo not drawn) | 70.4 °C | 4.5 |  |  | -7.64 |  | 
9 | CCCCOC(=O)C1(O)c2ccccc2-c2ccccc21 | 71 °C |  |  |  |  |  | 
10 | CCNNCC |  | 1.18 | 85.5 °C |  |  |  | 
11 | ClC(Cl)C(Cl)Cl | -43.8 °C | 1.9 | 146 °C | not readily biodegradable | 0.665 | -3.44 | 
12 | O=c1oc2ccccc2c(O)c1Cc1c(O)c2ccccc2oc1=O | 290 °C |  |  |  |  |  | 
13 | CN(CC(=O)O)C(=O)COC(=O)c1ccccc1 | 106 °C |  |  |  |  |  | 
14 | O=Cc1ccccc1Cl | 12.4 °C |  | 212 °C | not readily biodegradable | -0.638 |  | 
15 | O=C(O)c1cc(Cl)cc(Cl)c1Cl | 166 °C |  |  |  | -3.51 |  | 
16 | CCOC(=O)CCC(C)C |  |  | 163 °C |  |  |  | 
17 | N#Cc1c(F)c(F)c(F)c(F)c1F | 2.4 °C |  | 162 °C |  |  |  | 
18 | C=CC[Si](C)(C)Cl |  |  | 111 °C |  |  |  | 
19 | OCc1cccc(F)c1 |  |  | 201 °C |  |  |  | 
20 | CCCCC(O)C(=O)O (stereo not drawn) | 61 °C |  | 305 °C |  | -5.5 |  | 
21 | O=C(c1ccccc1)c1ccc2n1CCC2C(=O)O (stereo not drawn) | 160 °C |  |  |  |  |  | 
22 | Oc1ccc2c(c1)CCC2 | 58 °C | 3.4 | 253 °C |  |  |  | 
23 | COC(=O)c1ccc(O)c(N)c1 | 143 °C |  |  |  |  |  | 
24 | NC(=O)c1nc(-c2ccccc2)n(-c2ccc(Cl)c(COCC(F)(F)C(F)(F)F)c2)n1 | 146 °C |  |  |  |  |  | 
25 | O=C(NCC1CCCCN1)c1cc(OCC(F)(F)F)ccc1OCC(F)(F)F (stereo not drawn) | 146 °C |  |  |  |  |  | 
26 | O=C(C=Cc1ccco1)C=Cc1ccco1 | 60.5 °C |  |  |  |  |  | 

Row | Compound | melting point | log10 Koc (L/kg) | boiling point | ready biodegradability | log10 vapour pressure (mmHg) | log10 Henry constant (atm·m³/mol) | log10 biodegradation half-life (days)
27 | O=Cc1ccc(CO)o1 | 31.5 °C |  |  |  |  |  | 
28 | O=C(Cn1ccnc1[N+](=O)[O-])NCc1ccccc1 | 189 °C |  |  |  |  |  | 
29 | N#Cc1c(Cl)cccc1Cl | 144 °C | 2.5 | 270 °C |  | -3.18 |  | 
30 | CC(=O)OCC(=O)[C@H]1CC[C@H]2[C@@H]3CC=C4C[C@@H](O)CC[C@]4(C)[C@H]3CC[C@]12C | 184 °C |  |  |  |  |  | 
31 | CC(C(O)c1ccccc1)N(C)C/C=C/c1ccccc1 (stereo not drawn) | 75 °C |  |  |  |  |  | 
32 | O=C(O)CCCCC1CCSS1 (stereo not drawn) | 60.5 °C |  |  |  |  |  | 
33 | Oc1cc(O)c2ccccc2c1 | 124 °C |  |  |  |  |  | 
34 | COc1cc(NC(=O)CC(C)=O)c(OC)cc1Cl |  |  |  | not readily biodegradable |  |  | 
35 | CC(C)OC(=O)c1cc(-c2nn(C)c(C(F)(F)F)c2Br)c(F)cc1Cl | 80 °C |  |  |  | -7.15 |  | 
36 | CCCCCCCCCCCCCC(=O)CCCCCCCCCCCCC | 77.5 °C |  |  |  |  |  | 
37 | c1cnc2cccnc2c1 | 75 °C |  |  |  |  |  | 
38 | CNC(=O)O/N=C(\C)C(C)S(C)(=O)=O (stereo not drawn) | 87 °C |  |  |  | -5.7 |  | 
39 | Clc1cc2c(cc1Cl)Oc1c(Cl)c(Cl)c(Cl)c(Cl)c1O2 | 273 °C |  |  |  | -10.4 |  | 
40 | C=CCOCC=C | -6 °C |  | 94 °C |  |  |  | 
41 | CCc1ccccc1C |  |  | 165 °C |  | 0.417 |  | 0.602
42 | CCN(C(C)=O)C(C)=O |  |  | 197 °C |  |  |  | 
43 | N#Cc1ccccc1N | 51 °C |  | 263 °C |  |  |  | 
44 | O=C(O)COc1ccc(Cl)cc1 | 164 °C |  |  |  |  |  | 
45 | CN(C)c1ccc(N)cc1 | 53 °C |  | 263 °C |  |  |  | 
46 | CCCCCCCCCCCCCCc1ccccc1 | 16 °C |  | 359 °C |  | -4.62 |  | 
47 | CCOc1ccc(C(N)=O)cc1 | 209 °C |  |  |  |  |  | 
48 | CC(C)(C(N)=O)n1nnc2ccccc21 | 187 °C |  |  |  |  |  | 
49 | Cc1ccccc1OC(=O)c1ccccc1 |  |  | 309 °C |  |  |  | 
50 | CC(C1CC1)C(O)(Cn1cncn1)c1ccc(Cl)cc1 (stereo not drawn) | 108 °C |  |  |  | -6.59 |  | 
51 | CN(C)C1CCCCC1 |  |  | 160 °C |  |  | -4.63 | 
52 | COP(=O)(OC)O/C(C)=C/C(=O)N(C)C |  | 1.66 |  |  | -3.8 | -10.3 | 

Row | Compound | melting point | log10 Koc (L/kg) | boiling point | ready biodegradability | log10 vapour pressure (mmHg) | log10 Henry constant (atm·m³/mol) | log10 biodegradation half-life (days)
53 | CC(C)CCCCCCCCCCCO | 10.5 °C |  |  |  |  |  | 
54 | CC(=O)C(c1ccccc1)c1ccccc1 | 46 °C |  | 307 °C |  |  |  | 
55 | CCCC(Br)CBr (stereo not drawn) |  |  |  |  | 0.153 |  | 
56 | CC(C)Cl | -117 °C |  | 35.7 °C |  | 2.71 |  | 
57 | CCCCCCCC/C=C\CCCCCCCC(=O)OC | -19.9 °C |  |  | readily biodegradable | -5.2 |  | 
58 | COC(=O)C(C)C | -84.7 °C |  | 92.5 °C |  | 1.69 |  | 
59 | CCNC(N)=O | 92.5 °C |  |  |  |  |  | 
60 | CCCCCCC(C)Cl (stereo not drawn) |  |  | 172 °C |  | 0.136 |  | 
61 | c1ccc([Si](c2ccccc2)(c2ccccc2)c2ccccc2)cc1 | 236 °C |  |  |  |  |  | 
62 | CC(C)C1CC=C(C=O)CC1 (stereo not drawn) |  |  | 223 °C |  |  |  | 
63 | COC(=O)C1CC(=O)N(C)C1 (stereo not drawn) | 15 °C |  |  |  |  |  | 
64 | N=C(N)NS(=O)(=O)c1ccc(N)cc1 | 192 °C |  |  |  |  |  | 
65 | CC(=O)CC(=O)c1cccnc1 | 85 °C |  |  |  |  |  | 
66 | CC(O)(CCl)CCl |  |  | 174 °C |  |  |  | 
67 | CC1=CC(=O)C(C2=C(O)C(=O)C(C)=CC2=O)=C(O)C1=O | 230 °C |  |  |  |  |  | 
68 | Oc1nc2ccccc2s1 | 139 °C |  | 360 °C |  |  |  | 
69 | CCOP(=S)(OCC)SCn1c(=O)oc2cc(Cl)ccc21 | 47.8 °C | 2.63 |  |  |  |  | 
70 | O=C(c1ccccc1)c1c(F)c(F)c(F)c(F)c1F | 37 °C |  |  |  |  |  | 
71 | CC[C@H]1CC[C@H](C)NC1 |  |  |  |  | 0.458 |  | 
72 | C=C[Si](C)(C)O[Si](C)(C)C=C | -99.7 °C |  | 39 °C |  |  |  | 
73 | COc1ccc(C(=O)c2ccccc2)c(O)c1 | 65.5 °C |  |  | not readily biodegradable |  |  | 
74 | CCCCCCCCCCCCCCCCCCOS(=O)(=O)[O][Na] |  |  |  | readily biodegradable |  |  | 
75 | CC(C)CCCC(C)C | -103 °C |  | 135 °C |  |  |  | 
76 | C=C[C@H](C)O |  |  | 96.5 °C |  |  |  | 
77 | CCN(CC)CCCN |  |  | 168 °C |  |  |  | 
78 | CC(=O)Oc1ccccc1[N+](=O)[O-] | 40.5 °C |  |  |  | -2.66 |  | 

Row | Compound | melting point | log10 Koc (L/kg) | boiling point | ready biodegradability | log10 vapour pressure (mmHg) | log10 Henry constant (atm·m³/mol) | log10 biodegradation half-life (days)
79 | CCOC(=O)CSCCC1NC(C(=O)O)CS1 (stereo not drawn) | 142 °C |  |  |  |  |  | 
80 | CCCCOC | -116 °C |  | 70.1 °C |  | 2.14 |  | 
81 | O=C=Nc1cccc([N+](=O)[O-])c1 | 51 °C |  |  |  |  |  | 
82 | CC(COc1ccccc1)NC(C)C(O)c1ccc(O)cc1 (stereo not drawn) | 103 °C |  |  |  |  |  | 
83 | CCC(CO)[N+](=O)[O-] (stereo not drawn) | -47 °C |  |  |  |  |  | 
84 | CC(C)CCCC(C)CCO (stereo not drawn) |  |  | 212 °C |  |  |  | 
85 | Nc1ccc2nccnc2c1 | 159 °C |  |  |  |  |  | 
86 | C=CCc1ccc(OC=O)c(OC)c1 |  |  | 270 °C |  |  |  | 
87 | CC(C)(Cl)Cl | -33.8 °C |  | 69.3 °C |  |  |  | 
88 | FC(F)=C(F)F | -142 °C |  | -75.9 °C |  | 4.39 |  | 
89 | Brc1cscc1Br | 4.5 °C |  | 222 °C |  |  |  | 
90 | CCCCCc1ccc(O)cc1O | 72.5 °C |  |  |  |  |  | 
91 | CC(=O)c1ccc(O[C@@H]2O[C@H](CO)[C@@H](O)[C@H](O)[C@H]2O)cc1 | 196 °C |  |  |  |  |  | 
92 | O=S1OCC2C(CO1)C1(Cl)C(Cl)=C(Cl)C2(Cl)C1(Cl)Cl (stereo not drawn) | 106 °C | 4.11 |  |  | -6.17 | -4.62 | 
93 | CCCC(C)C(C)C (stereo not drawn) |  |  | 116 °C |  | 1.37 |  | 1.42
94 | NC(=O)Nc1ccc2ccccc2c1 | 219 °C |  |  |  |  |  | 
95 | CC(=O)N=c1sc(S(N)(=O)=O)nn1C | 214 °C |  |  |  |  |  | 
96 | CCC(=O)OC(C)(C)C |  |  | 118 °C |  |  |  | 
97 | O=C(O)CNC(=O)c1ccccc1 | 192 °C |  |  | readily biodegradable |  |  | 
98 | CCC(OC(N)=O)C1CCCCC1 (stereo not drawn) | 128 °C |  |  |  |  |  | 
99 | O=C(CS)Nc1ccc2ccccc2c1 | 112 °C |  |  |  |  |  | 
100 | COc1cc(C)oc(=O)c1 | 86 °C |  |  |  |  |  | 
101 | COC(OC)(OC)OC | -5 °C |  | 114 °C |  |  |  | 

Same assay, conditions: fish

Row | Compound | log10 BCF | log10 biotransformation half-life (days)
102 | COP(=S)(Oc1cc(Cl)c(Br)cc1Cl)c1ccccc1 (stereo not drawn) | 3.78 | 1.26
103 | ClC(Cl)C(Cl)Cl | 1.11 | -0.67
104 | Clc1cc2c(cc1Cl)Oc1c(Cl)c(Cl)c(Cl)c(Cl)c1O2 | 4 | 1.27
105 | COc1ccc(C(=O)c2ccccc2)c(O)c1 | 1.97 | 
106 | COc1c(Cl)cc(Cl)c(Cl)c1Cl | 3.34 | 

Reference: the OPERA property sets (Mansouri et al. 2018)
